Measurements: US10471060B2, “Amino pyrimidine compounds useful as SSAO inhibitors” (Eli Lilly and Company, priority 2017, dated 2019)

How the values were obtained:
SSAO = SSAO Target Engagement: residual SSAO activity in rat plasma and liver after dosing; format: in vivo; conditions: for SSAO Activity (%) Liver 24 hours / SSAO Activity (%) Plasma 2 hours / SSAO Activity (%) Plasma 24 hours: mean ± SEM, n = 6
Description: The SSAO activity in rat plasma and liver tissues are measured using the MAO-Glo™ assay kit from Promega (V1402). The residual SSAO activity in rats after compound treatment is estimated by measuring the total amine oxidase activity in plasma or liver lysates that are insensitive to the presence of the MAO inhibitor Clogyline and Pargyline. Rats are administered the compound of Example 1 at the doses of 15, 3, 0.6, 0.12, 0.025, 0.005 mg/kg. The control group is administered with the same volume (2 ml/kg) of the dosing vehicle (hydroxyethyl cellulose 1% w/v, 0.25% Tween 80). Plasma and liver at 2 or 24 hrs post compound treatment are harvested and stored at −78° C. until analysis. Tissue lysates are prepared by homogenization in a lysis buffer (20 mM HEPES, pH 7.4, 150 mM NaCl, 1 mM EDTA, 1 mM EGTA, 1% Triton X-100 and 1× Roche Complete protease inhibitor tablet). Tissue particles are removed by centrifugation at 12,000 rpm at 4° C. for 30 min. 40 μl of plasma or liver lysates is incubated with Clogyline (10 μM) and Pargyline (10 μM) for 20 min. at room temperature before the addition of the luminogenic substrate (50 μM) for 60 min. The product generated is quantified according to the manufacture's procedure. The fraction of activity that is insensitive to the presence of the MAO inhibitors is used as the surrogate for the residual SSAO activity. The compound of Example 1 is evaluated in the protocol essentially as described above administered at various doses.

recombinant hSSAO = molecular target: T1, recombinant hSSAO (Homo sapiens, UniProt Q16853); assay: SSAO/VAP-1 in vitro amine oxidase activity, MAO-Glo assay; format: biochemical; conditions: mean±standard deviation, n=5; substrate 10 μM, pH 7.4; read-out: hSSAO inhibition IC50
T1 sequence (Q16853 1-763): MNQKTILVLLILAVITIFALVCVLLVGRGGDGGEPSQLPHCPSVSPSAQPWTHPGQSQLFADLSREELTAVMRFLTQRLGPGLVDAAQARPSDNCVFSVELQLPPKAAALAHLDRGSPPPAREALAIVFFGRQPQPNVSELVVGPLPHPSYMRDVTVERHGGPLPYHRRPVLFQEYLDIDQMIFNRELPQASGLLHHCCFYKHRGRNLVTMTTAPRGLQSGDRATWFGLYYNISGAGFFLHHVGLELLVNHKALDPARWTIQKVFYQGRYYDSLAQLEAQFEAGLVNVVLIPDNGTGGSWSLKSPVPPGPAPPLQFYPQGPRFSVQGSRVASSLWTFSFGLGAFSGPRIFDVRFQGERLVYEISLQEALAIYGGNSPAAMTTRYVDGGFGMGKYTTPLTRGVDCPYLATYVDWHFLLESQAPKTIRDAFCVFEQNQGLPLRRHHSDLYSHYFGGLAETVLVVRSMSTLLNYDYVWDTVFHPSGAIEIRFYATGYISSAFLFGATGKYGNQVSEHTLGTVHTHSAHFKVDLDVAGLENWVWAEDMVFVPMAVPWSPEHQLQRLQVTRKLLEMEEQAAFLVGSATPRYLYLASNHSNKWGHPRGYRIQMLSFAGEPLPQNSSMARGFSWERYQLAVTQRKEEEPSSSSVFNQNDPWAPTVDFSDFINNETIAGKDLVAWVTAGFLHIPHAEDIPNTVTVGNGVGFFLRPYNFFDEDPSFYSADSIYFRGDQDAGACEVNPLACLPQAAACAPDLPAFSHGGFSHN
Description: Amine oxidase activity of recombinant hSSAO, hMAOa, and hMAOb isoforms are measured using the MAO-Glo™ assay kit from Promega (V1402). Test compounds (with DMSO as vehicle, 0.5% v/v for SSAO) and the enzyme are incubated for 10 mins at room temperature before the addition of the luminogenic substrate. The substrate concentration is 10 μM for human recombinant SSAO. The assays are conducted in a pH 7.4 buffer (50 mM HEPES, 120 mM NaCl, 5 mM KCl, 2 mM CaCl2, 1.4 mM MgCl2, 0.001% Tween-20) in a well-plate. Oxidation of the substrate is conducted for 2 hrs before the addition of detecting reagent according the manufacture's protocol. The IC50 value of the tested compounds is calculated by fitting the dose response curve using a 4-parameter non-linear regression routine.

For `CN1CCC2(CCN(c3ncc(OC/C(=C/F)CN)cn3)CC2)C1=O.Cl.Cl` [Example 1, 8-[5-[(E)-2-(Aminomethyl)-3-fluoro-allyloxy]pyrimidin-2-yl]-2-methyl-2,8-diazaspiro[4.5]decan-1-one Dihydrochloride], the “SSAO Activity (%) Liver 24 hours” value (SSAO; dose 0.005 mg/kg) was 79 ± 13%, the “SSAO Activity (%) Plasma 2 hours” value (SSAO; dose 0.005 mg/kg) was 76 ± 3% and the “SSAO Activity (%) Plasma 24 hours” value (SSAO; dose 0.005 mg/kg) was 81 ± 4%. The “SSAO Activity (%) Liver 24 hours” value (SSAO; dose 0.025 mg/kg) was 59 ± 14%, the “SSAO Activity (%) Plasma 2 hours” value (SSAO; dose 0.025 mg/kg) was 35 ± 4% and the “SSAO Activity (%) Plasma 24 hours” value (SSAO; dose 0.025 mg/kg) was 67 ± 10%. The “SSAO Activity (%) Liver 24 hours” value (SSAO; dose 0.12 mg/kg) was 28 ± 5%, the “SSAO Activity (%) Plasma 2 hours” value (SSAO; dose 0.12 mg/kg) was 17 ± 1% and the “SSAO Activity (%) Plasma 24 hours” value (SSAO; dose 0.12 mg/kg) was 39 ± 4%. For the same compound, the “SSAO Activity (%) Liver 24 hours” value (SSAO; dose 0.6 mg/kg) was 24 ± 6%, the “SSAO Activity (%) Plasma 2 hours” value (SSAO; dose 0.6 mg/kg) was 13.4 ± 2.4% and the “SSAO Activity (%) Plasma 24 hours” value (SSAO; dose 0.6 mg/kg) was 31 ± 3%. The “SSAO Activity (%) Liver 24 hours” value (SSAO; dose 3 mg/kg) was 6 ± 4%, the “SSAO Activity (%) Plasma 2 hours” value (SSAO; dose 3 mg/kg) was 5.9 ± 1.6% and the “SSAO Activity (%) Plasma 24 hours” value (SSAO; dose 3 mg/kg) was 19 ± 2%. For the same compound, the “SSAO Activity (%) Liver 24 hours” value (SSAO; dose 15 mg/kg) was −0.63 ± 1.1%, the “SSAO Activity (%) Plasma 2 hours” value (SSAO; dose 15 mg/kg) was 3.1 ± 0.9% and the “SSAO Activity (%) Plasma 24 hours” value (SSAO; dose 15 mg/kg) was 14 ± 1%. For the same compound, the “inhibition of SSAO activity in rat plasma and liver tissue (in words)” value (SSAO; doses 0.005 to 15 mg/kg) was “dose-dependently inhibits SSAO activity” and the IC50 (recombinant hSSAO) was 0.0194 ± 0.00568 µM.
